# Test results published in patent US11110055B2, “Pharmaceutical formulations of tropomyosin related kinase (TRK) inhibitors” (Genzyme Corporation, priority 2014, dated 2021).
# Test: Physical stability and aqueous dissolution of monohydrate versus anhydrate form
# Type: physicochemical
stability in solution,aqueous dissolution compared to the anhydrate form,physical stability compared to the anhydrate form,Structure (SMILES)
relatively unstable in solution,–,–,"COc1ccc(COc2ccc(Cn3c(N)nc4cc(-c5cnn(C)c5)cnc43)cc2OC)cc1 [GZ389988, 3-(3-methoxy-4-((4-methoxybenzyl)oxy)benzyl)-6-(1-methyl-1H-pyrazol-4-yl)-3H-imidazo[4,5-b]pyridin-2-amine]"
–,slower aqueous dissolution,better physical stability,"COc1ccc(COc2ccc(Cn3c(N)nc4cc(-c5cnn(C)c5)cnc43)cc2OC)cc1 [GZ389988A, 3-(3-methoxy-4-((4-methoxybenzyl)oxy)benzyl)-6-(1-methyl-1H-pyrazol-4-yl)-3H-imidazo[4,5-b]pyridin-2-amine monohydrate]"
